As usually defined, the Ki is a measure of affinity in units of concentration, obtained from inhibition or displacement.

SMILES strings stand for the structures.

The target of this experiment is rat MCH-1 (Rattus norvegicus, UniProt P97639). Put plainly: Radioligand binding assay at cloned rat MCH1 receptor ([3H] Compound A). The arrangement: host or cells: Peak rapid 293 (Peakr293) cells, transient calcium phosphate transfection, membranes. Conditions: cloned rat MCH1 receptor; 0.08 nM [3H] Compound A; Peakr293 cell membranes; read-out: Ki (nM) rMCH1.
rat MCH-1, sequence (P97639 whole entry): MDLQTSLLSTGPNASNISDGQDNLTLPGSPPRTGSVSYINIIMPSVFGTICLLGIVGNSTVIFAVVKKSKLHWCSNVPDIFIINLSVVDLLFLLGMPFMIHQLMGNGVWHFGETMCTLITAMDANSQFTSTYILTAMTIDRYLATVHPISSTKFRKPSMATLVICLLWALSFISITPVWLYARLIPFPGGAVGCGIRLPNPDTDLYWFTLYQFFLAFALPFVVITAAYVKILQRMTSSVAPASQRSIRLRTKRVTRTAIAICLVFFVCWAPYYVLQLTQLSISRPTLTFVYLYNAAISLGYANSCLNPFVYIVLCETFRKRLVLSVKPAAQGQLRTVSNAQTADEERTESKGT
`CC(C)C(=O)Nc1cccc(C2CCN(Cc3ccc4c(ccn4-c4ccc(C(F)(F)F)cc4)c3)CC2)c1` [Example 845]: the Ki stood at 43.1 nM.
To `CC(C)C(=O)Nc1cccc(C2CCN(Cc3ccc4c(ccn4-c4ccccc4-c4ccccc4)c3)CC2)c1` [Example 846] belongs 18.4 nM; to `Cc1ccccc1-n1ccc2cc(CN3CCC(c4cccc(NC(=O)C(C)C)c4)CC3)ccc21` [Example 847], 10.2 nM; to `Cc1ccc(-n2ccc3cc(CN4CCC(c5cccc(NC(=O)C(C)C)c5)CC4)ccc32)cc1` [Example 848], 19.1 nM.
To `CC(C)C(=O)Nc1cccc(C2CCN(Cc3ccc4c(ccn4-c4ccccc4Cl)c3)CC2)c1` [Example 849] belongs 9.4 nM; to `CC(C)C(=O)Nc1cccc(C2CCN(Cc3ccc4c(ccn4-c4cccc(C(F)(F)F)c4)c3)CC2)c1` [Example 850], 9.5 nM; to `CC(C)C(=O)Nc1cccc(C2CCN(Cc3ccc4c(ccn4-c4ccccc4[N+](=O)[O-])c3)CC2)c1` [Example 851], 27.4 nM.
To `CC(C)C(=O)Nc1cccc(C2CCN(Cc3ccc4c(ccn4-c4ccccc4F)c3)CC2)c1` [Example 852] belongs 14.5 nM.
Regarding `CC(C)C(=O)Nc1cccc(C2CCN(Cc3ccc4c(ccn4-c4cccc5ccccc45)c3)CC2)c1` [Example 853], the inhibitory constant (Ki) is 48 nM.
To `CC(C)C(=O)Nc1cccc(C2CCN(Cc3ccc4c(ccn4-c4cccc(Cl)c4Cl)c3)CC2)c1` [Example 854] belongs 13.8 nM.
To `CC(C)C(=O)Nc1cccc(C2CCN(Cc3cccc4ccn(-c5cccc(Cl)c5Cl)c34)CC2)c1` [Example 855] belongs 256 nM; to `COc1cccc(-n2ccc3c(CN4CCC(c5cccc(NC(=O)C(C)C)c5)CC4)cccc32)c1` [Example 856], 123 nM.
To `CC(C)C(=O)Nc1cccc(C2CCN(Cc3cccc4c3ccn4-c3cccc(Cl)c3Cl)CC2)c1` [Example 857] belongs 89.8 nM; to `CC(C)C(=O)Nc1cccc(C2CCN(Cc3cccc4c3ccn4-c3cccc(Cl)c3)CC2)c1` [Example 858], 44.9 nM; to `Cc1cccc(-n2ccc3c(CN4CCC(c5cccc(NC(=O)C(C)C)c5)CC4)cccc32)c1` [Example 859], 321 nM.
Turning to `COc1cccc(-n2ccc3cccc(CN4CCC(c5cccc(NC(=O)C(C)C)c5)CC4)c32)c1` [Example 860], the Ki stood at 40.5 nM.
To `CC(C)C(=O)Nc1cccc(C2CCN(Cc3cccc4c3ccn4-c3cccc(C(F)(F)F)c3)CC2)c1` [Example 861] belongs 94.1 nM; to `Cc1ccc(-n2ccc3c(CN4CCC(c5cccc(NC(=O)C(C)C)c5)CC4)cccc32)cc1C` [Example 862], 438 nM.
To `CC(C)C(=O)Nc1cccc(C2CCN(Cc3cccc4c3ccn4-c3cc(Cl)cc(Cl)c3)CC2)c1` [Example 863] belongs 269 nM.
To `CC(C)C(=O)Nc1cccc(C2CCN(Cc3cccc4c3ccn4-c3ccc(Cl)c(Cl)c3)CC2)c1` [Example 864] belongs 292 nM.
For the compound `CC(C)C(=O)Nc1cccc(C2CCN(Cc3cccc4c3ccn4-c3ccc(F)cc3Cl)CC2)c1` [Example 865], the Ki stood at 94.6 nM.
To `CC(C)C(=O)Nc1cccc(C2CCN(Cc3cccc4c3ccn4-c3ccc(F)cc3F)CC2)c1` [Example 866] belongs 169 nM.
For `CC(C)C(=O)Nc1cccc(C2CCN(Cc3cccc4ccn(-c5cccnc5)c34)CC2)c1` [Example 867], the inhibition constant Ki was 892 nM.
To `CC(C)C(=O)Nc1cccc(C2CCN(Cc3ccc4cc[nH]c4c3)CC2)c1` [Example 868] belongs 403 nM; to `CC(C)C(=O)Nc1cccc(C2CCN(Cc3cccc4c3ccn4-c3ccncc3)CC2)c1` [Example 869], 431 nM; to `CC(C)C(=O)Nc1cccc(C2CCN(Cc3cccc4c3ccn4-c3ccccn3)CC2)c1` [Example 870], 167 nM.
As for `CC(C)C(=O)Nc1cccc(C2CCN(Cc3cccc4c3ccn4-c3ccccc3F)CC2)c1` [Example 871], the Ki was found to be 252 nM.
To `CC(C)C(=O)Nc1cccc(C2CCN(Cc3cccc4c3ccn4-c3ccc(Cl)cc3)CC2)c1` [Example 872] belongs 306 nM.
For `CC(C)C(=O)Nc1cccc(C2CCN(Cc3cccc4c3ccn4-c3cccnc3)CC2)c1` [Example 873], the Ki turned out to be 345 nM.
To `Cc1cccc(-n2ccc3c(CN4CCC(c5cccc(NC(=O)C(C)C)c5)CC4)cccc32)c1C` [Example 874] belongs 247 nM.
In the case of `CC(C)C(=O)Nc1cccc(C2CCN(Cc3cccc4c3ccn4-c3cccc(F)c3)CC2)c1` [Example 875], the inhibitory constant (Ki) came to 130 nM.
To `CC(C)C(=O)Nc1cccc(C2CCN(Cc3cccc4c3ccn4-c3ccccc3C(F)(F)F)CC2)c1` [Example 876] belongs 758 nM.
To `CC(C)C(=O)Nc1cccc(C2CCN(Cc3cccc4c3ccn4-c3ccccc3Cl)CC2)c1` [Example 877] belongs 245 nM; to `Cc1cccc(-n2ccc3cccc(CN4CCC(c5cccc(NC(=O)C(C)C)c5)CC4)c32)c1C` [Example 878], 169 nM; to `CC(=O)c1cccc(OC(CCCCCN2CCC(c3cccc(NC(=O)C(C)C)c3)CC2)c2ccccc2F)c1` (stereo not shown) [Example 888], 19.8 nM.
To `CC(C)C(=O)Nc1cccc(C2CCN(CCCCCC(Oc3ccccc3F)c3ccccc3F)CC2)c1` (stereo not shown) [Example 889] belongs 8.6 nM; to `CC(C)C(=O)Nc1cccc(C2CCN(CCCCCC(Oc3ccc(F)cc3)c3ccccc3F)CC2)c1` (stereo not shown) [Example 890], 11.1 nM; to `COc1ccccc1OC(CCCCCN1CCC(c2cccc(NC(=O)C(C)C)c2)CC1)c1ccccc1F` (stereo not shown) [Example 891], 6.5 nM.
In the case of `COc1ccc(OC(CCCCCN2CCC(c3cccc(NC(=O)C(C)C)c3)CC2)c2ccccc2F)cc1` (stereo not shown) [Example 892], the inhibition constant (Ki) came to 17.3 nM.
To `CC(=O)c1ccc(OC(CCCCCN2CCC(c3cccc(NC(=O)C(C)C)c3)CC2)c2ccccc2F)cc1` (stereo not shown) [Example 893] belongs 23 nM; to `COc1ccc(OC(CCCCCN2CCC(c3cccc(NC(=O)C(C)C)c3)CC2)c2ccccc2F)cc1OC` (stereo not shown) [Example 894], 41.7 nM; to `CCOc1ccccc1OC(CCCCCN1CCC(c2cccc(NC(=O)C(C)C)c2)CC1)c1ccccc1F` (stereo not shown) [Example 895], 6.4 nM.
To `CC(C)C(=O)Nc1cccc(C2CCN(CCCCCC(Oc3ccc(Br)cc3)c3ccccc3)CC2)c1` (stereo not shown) [Example 896] belongs 30.3 nM.
To `CC(C)C(=O)Nc1cccc(C2CCN(CCCCCC(Oc3ccc(F)cc3)c3ccc(F)cc3)CC2)c1` (stereo not shown) [Example 897] belongs 6.4 nM; to `COc1ccc(OC(CCCCCN2CCC(c3cccc(NC(=O)C(C)C)c3)CC2)c2ccccc2)cc1` (stereo not shown) [Example 898], 33.7 nM; to `CC(C)C(=O)Nc1cccc(C2CCN(CCCCCC(Oc3ccc(Cl)cc3)c3ccc(Cl)cc3)CC2)c1` (stereo not shown) [Example 899], 18 nM.
For the compound `CC(C)C(=O)Nc1cccc(C2CCN(CCCCCC(Oc3ccc(Br)cc3)c3ccc(F)cc3)CC2)c1` (stereo not shown) [Example 900], the Ki was determined as 11.2 nM.
To `CC(C)C(=O)Nc1cccc(C2CCN(CCCCCC(Oc3ccc(Cl)cc3)c3ccc(F)cc3)CC2)c1` (stereo not shown) [Example 901] belongs 8.2 nM; to `CC(C)C(=O)Nc1cccc(C2CCN(CCCCCC(Oc3ccc(F)cc3)c3ccc(Cl)cc3)CC2)c1` (stereo not shown) [Example 902], 11 nM.
To `CC(=O)c1cccc(OC(CCCCCN2CCC(c3cccc(NC(=O)C(C)C)c3)CC2)c2ccccc2)c1` (stereo not shown) [Example 903] belongs 12.2 nM.
To `CC(C)C(=O)Nc1cccc(C2CCN(CCCCCC(Oc3ccc(Cl)cc3)c3ccccc3)CC2)c1` (stereo not shown) [Example 904] belongs 14.2 nM; to `CC(C)C(=O)Nc1cccc(C2CCN(CCCCCC(Oc3ccc(Br)cc3)c3ccc(Cl)cc3)CC2)c1` (stereo not shown) [Example 905], 5.9 nM; to `COc1ccc(OC(CCCCCN2CCC(c3cccc(NC(=O)C(C)C)c3)CC2)c2ccc(Cl)cc2)cc1` (stereo not shown) [Example 906], 5.7 nM.
For the compound `COc1ccc(OC(CCCCCN2CCC(c3cccc(NC(=O)C(C)C)c3)CC2)c2ccc(F)cc2)cc1` (stereo not shown) [Example 907], the Ki is 3.1 nM.
To `CC(=O)c1cccc(OC(CCCCCN2CCC(c3cccc(NC(=O)C(C)C)c3)CC2)c2ccc(F)cc2)c1` (stereo not shown) [Example 908] belongs 3.7 nM; to `CC(C)C(=O)Nc1cccc(C2CCN(CCCCCC(Oc3ccc(F)cc3)c3ccccc3)CC2)c1` (stereo not shown) [Example 909], 10 nM.
To `CC(=O)c1ccccc1OC(CCCCCN1CCC(c2cccc(NC(=O)C(C)C)c2)CC1)c1ccccc1F` (stereo not shown) [Example 910] belongs 10.1 nM; to `CC(C)C(=O)Nc1cccc(C2CCN(CCCCCC(Oc3cc(C(F)(F)F)ccc3F)c3ccc(F)cc3)CC2)c1` (stereo not shown) [Example 911], 7.6 nM; to `CC(=O)c1cccc(OC(CCCCCN2CCC(c3cccc(NC(=O)C(C)C)c3)CC2)c2ccc(Cl)cc2)c1` (stereo not shown) [Example 912], 5.7 nM.
To `CC(C)C(=O)Nc1cccc(C2CCN(CCCCCC(Oc3cc(C(F)(F)F)ccc3F)c3ccccc3F)CC2)c1` (stereo not shown) [Example 913] belongs 12.9 nM; to `CC(C)C(=O)Nc1cccc(C2CCN(CCCCCC(Oc3cc(C(F)(F)F)ccc3F)c3ccc(Cl)cc3)CC2)c1` (stereo not shown) [Example 914], 17.3 nM.
With `CC(C)C(=O)Nc1cccc(C2CCN(CCCCCC(Oc3cc(C(F)(F)F)ccc3F)c3cccc(F)c3)CC2)c1` (stereo not shown) [Example 915], the Ki is 22.6 nM.
To `CC(C)C(=O)Nc1cccc(C2CCN(CCCCCC(Oc3cc(C(F)(F)F)ccc3F)c3ccccc3)CC2)c1` (stereo not shown) [Example 916] belongs 20.2 nM.
`CC(C)C(=O)Nc1cccc(C2CCN(CCCCCCC(Oc3cc(C(F)(F)F)ccc3F)c3ccccc3F)CC2)c1` (stereo not shown) [Example 917]: the Ki was determined as 78 nM.
To `COc1ccc(OC(CCCCN2CCC(c3cccc(NC(=O)C(C)C)c3)CC2)c2ccc(F)cc2)cc1` (stereo not shown) [Example 918] belongs 29.3 nM.
To `CC(C)C(=O)Nc1cccc(C2CCN(CCCCC(Oc3ccc(Br)cc3)c3ccc(F)cc3)CC2)c1` (stereo not shown) [Example 919] belongs 14 nM; to `CC(C)C(=O)Nc1cccc(C2CCN(CCCCC(Oc3ccc(Cl)cc3)c3ccc(Cl)cc3)CC2)c1` (stereo not shown) [Example 920], 6.9 nM.
